Assay results published in US12365850B2, “Water-miscible functional fluid, undiluted stock of water-miscible functional fluid, sterilizer for water-miscible functional fluid, and method of sterilizing water-miscible function fluid” (priority 2020, dated 2025).
Read-outs that look alike come from different tables or passages of the source. Blank lines part the entries; values can stand above or below the compound they belong to.

Legend:
[1] = pH drop suppression test of water-miscible cutting fluid (circulation and blue LED irradiation); format: physicochemical
bacteria = assay: Photosterilization test of neutral photosensitizers (bacterial count after light irradiation); format: cell-based
[2] = 100%×(pH at preparation−pH after continuing use)/(pH at preparation), riboflavin cutting fluid with the named antioxidant
[3] = class by pH change rate, riboflavin cutting fluid with the named antioxidant
[4] = riboflavin cutting fluid containing the named antioxidant, one month, Table 3 (same values as Table 2)
[5] = wavelength 450 nm, irradiance 100 μW/cm2, light intensity 10 J/cm2, photosensitizer 50 ppm (Lumichrome 20 ppm)
[6] = wavelength 450 nm, irradiance 100 μW/cm2, light intensity 30 J/cm2, photosensitizer 50 ppm (Lumichrome 20 ppm)
[7] = wavelength 450 nm, irradiance 100 μW/cm2, light intensity 50 J/cm2, photosensitizer 50 ppm (Lumichrome 20 ppm)
[8] = wavelength 450 nm, irradiance 100 μW/cm2, light intensity 100 J/cm2, photosensitizer 50 ppm (Lumichrome 20 ppm)
[9] = wavelength 450 nm, irradiance 100 μW/cm2, light intensity 200 J/cm2, photosensitizer 50 ppm (Lumichrome 20 ppm)
[10] = wavelength 450 nm, irradiance 100 μW/cm2, light intensity 400 J/cm2, photosensitizer 50 ppm (Lumichrome 20 ppm)

pH change rate (%) [1, 2]: 16.3% | pH change [1, 4]: 1.4
SMILES: NCC1CCCC(CN)C1 (stereo not shown) [1,3-Bis(aminomethyl)cyclohexane]
Evaluation of pH drop supression [1, 3]: B (pH change rate higher than 15% and at most 20%)

SMILES: Sc1nc2ccccc2[nH]1 [2-mercaptobenzimidazole]
Evaluation of pH drop supression [1]: C (key: A: pH change rate of 15% or lower; B: pH change rate higher than 15% and at most 20%; C: pH change rate higher than 20% and at most 30%; D: pH change rate higher than 30%) | pH change [1]: 2.4 | pH change rate (%) [1]: 27.9%

pH change rate (%) [1, 2]: 11.6% | Evaluation of pH drop supression [1, 3]: A (pH change rate of 15% or lower) | pH change [1, 4]: 1
SMILES: Cc1cc(C(C)(C)C)c(O)c(C(C)(C)C)c1 [BHT, butylated hydroxytoluene]

pH change rate (%) [1, 2]: 7.0% | Evaluation of pH drop supression [1, 3]: A (pH change rate of 15% or lower) | pH change [1, 4]: 0.6
SMILES: Cc1c(C)c2c(c(C)c1O)CC[C@@](C)(CCC[C@H](C)CCC[C@H](C)CCCC(C)C)O2 [D-α-tocopherol]

pH change rate (%) [1, 2]: 8.1% | Evaluation of pH drop supression [1, 3]: A (pH change rate of 15% or lower) | pH change [1, 4]: 0.7
SMILES: CC(O)CNCC(C)O (stereo not shown) [Di-isopropanolamine]

pH change rate (%) [1, 2]: 8.1% | Evaluation of pH drop supression [1, 3]: A (pH change rate of 15% or lower) | pH change [1, 4]: 0.7
SMILES: OCCNCCO [Diethanolamine]

SMILES: O=C([O-])CN(CCN(CC(=O)[O-])CC(=O)O)CC(=O)O.[Na+].[Na+] [Disodium edetate]
Evaluation of pH drop supression [1]: A (key: A: pH change rate of 15% or lower; B: pH change rate higher than 15% and at most 20%; C: pH change rate higher than 20% and at most 30%; D: pH change rate higher than 30%) | pH change [1]: 0.8 | pH change rate (%) [1]: 9.3%

SMILES: Cc1cc2nc3c(=O)[nH]c(=O)nc-3n(C[C@H](O)[C@H](O)[C@H](O)CO)c2cc1C [Example 1, Riboflavin]
change in the bacterial count due to the light irradiation (bacteria; result in words): a decrease in the bacterial count was found | Bacterial count (bacteria; wavelength 275 nm, irradiance 100 μW/cm2, light intensity 10 J/cm2, photosensitizer 50 ppm): ++ (bacterial count was 1.0×10^6 CFU/ml to 1.4×10^7 CFU/ml) | Bacterial count (bacteria; wavelength 275 nm, irradiance 100 μW/cm2, light intensity 30 J/cm2, photosensitizer 50 ppm): ++ (bacterial count was 1.0×10^6 CFU/ml to 1.4×10^7 CFU/ml) | Bacterial count (bacteria; wavelength 275 nm, irradiance 100 μW/cm2, light intensity 50 J/cm2, photosensitizer 50 ppm): + (bacterial count was at least 1.0×10^2 CFU/ml and less than 1.0×10^6 CFU/ml) | Bacterial count (bacteria; wavelength 275 nm, irradiance 100 μW/cm2, light intensity 100 J/cm2, photosensitizer 50 ppm): + (bacterial count was at least 1.0×10^2 CFU/ml and less than 1.0×10^6 CFU/ml) | Bacterial count (bacteria; wavelength 275 nm, irradiance 100 μW/cm2, light intensity 200 J/cm2, photosensitizer 50 ppm): + (bacterial count was at least 1.0×10^2 CFU/ml and less than 1.0×10^6 CFU/ml) | Bacterial count (bacteria; wavelength 275 nm, irradiance 100 μW/cm2, light intensity 400 J/cm2, photosensitizer 50 ppm): − (bacterial count was at least 0 and less than 1.0×10^2 CFU/mil) | Bacterial count (bacteria; wavelength 380 nm, irradiance 1200 μW/cm2, light intensity 10 J/cm2, photosensitizer 50 ppm): ++ (bacterial count was 1.0×10^6 CFU/ml to 1.4×10^7 CFU/ml) | Bacterial count (bacteria; wavelength 380 nm, irradiance 1200 μW/cm2, light intensity 30 J/cm2, photosensitizer 50 ppm): ++ (bacterial count was 1.0×10^6 CFU/ml to 1.4×10^7 CFU/ml) | Bacterial count (bacteria; wavelength 380 nm, irradiance 1200 μW/cm2, light intensity 50 J/cm2, photosensitizer 50 ppm): ++ (bacterial count was 1.0×10^6 CFU/ml to 1.4×10^7 CFU/ml) | Bacterial count (bacteria; wavelength 380 nm, irradiance 1200 μW/cm2, light intensity 100 J/cm2, photosensitizer 50 ppm): + (bacterial count was at least 1.0×10^2 CFU/ml and less than 1.0×10^6 CFU/ml) | Bacterial count (bacteria; wavelength 380 nm, irradiance 1200 μW/cm2, light intensity 200 J/cm2, photosensitizer 50 ppm): + (bacterial count was at least 1.0×10^2 CFU/ml and less than 1.0×10^6 CFU/ml) | Bacterial count (bacteria; wavelength 380 nm, irradiance 1200 μW/cm2, light intensity 400 J/cm2, photosensitizer 50 ppm): + (bacterial count was at least 1.0×10^2 CFU/ml and less than 1.0×10^6 CFU/ml) | Bacterial count (bacteria; [5]): ++ (bacterial count was 1.0×10^6 CFU/ml to 1.4×10^7 CFU/ml) | Bacterial count (bacteria; [6]): + (bacterial count was at least 1.0×10^2 CFU/ml and less than 1.0×10^6 CFU/ml) | Bacterial count (bacteria; [7]): + (bacterial count was at least 1.0×10^2 CFU/ml and less than 1.0×10^6 CFU/ml) | Bacterial count (bacteria; [8]): + (bacterial count was at least 1.0×10^2 CFU/ml and less than 1.0×10^6 CFU/ml) | Bacterial count (bacteria; [9]): − (bacterial count was at least 0 and less than 1.0×10^2 CFU/mil) | Bacterial count (bacteria; [10]): − (bacterial count was at least 0 and less than 1.0×10^2 CFU/mil) | Bacterial count (bacteria; wavelength 500 nm, irradiance 100 μW/cm2, light intensity 10 J/cm2, photosensitizer 50 ppm): ++ (bacterial count was 1.0×10^6 CFU/ml to 1.4×10^7 CFU/ml) | Bacterial count (bacteria; wavelength 500 nm, irradiance 100 μW/cm2, light intensity 30 J/cm2, photosensitizer 50 ppm): ++ (bacterial count was 1.0×10^6 CFU/ml to 1.4×10^7 CFU/ml) | Bacterial count (bacteria; wavelength 500 nm, irradiance 100 μW/cm2, light intensity 50 J/cm2, photosensitizer 50 ppm): ++ (bacterial count was 1.0×10^6 CFU/ml to 1.4×10^7 CFU/ml) | Bacterial count (bacteria; wavelength 500 nm, irradiance 100 μW/cm2, light intensity 100 J/cm2, photosensitizer 50 ppm): ++ (bacterial count was 1.0×10^6 CFU/ml to 1.4×10^7 CFU/ml) | Bacterial count (bacteria; wavelength 500 nm, irradiance 100 μW/cm2, light intensity 200 J/cm2, photosensitizer 50 ppm): + (bacterial count was at least 1.0×10^2 CFU/ml and less than 1.0×10^6 CFU/ml) | Bacterial count (bacteria; wavelength 500 nm, irradiance 100 μW/cm2, light intensity 400 J/cm2, photosensitizer 50 ppm): + (bacterial count was at least 1.0×10^2 CFU/ml and less than 1.0×10^6 CFU/ml)

SMILES: Cc1cc2nc3[nH]c(=O)[nH]c(=O)c3nc2cc1C [Example 2, Lumichrome]
Bacterial count (bacteria; [5]): ++ (bacterial count was 1.0×10^6 CFU/ml to 1.4×10^7 CFU/ml) | Bacterial count (bacteria; [6]): + (bacterial count was at least 1.0×10^2 CFU/ml and less than 1.0×10^6 CFU/ml) | Bacterial count (bacteria; [7]): − (bacterial count was at least 0 and less than 1.0×10^2 CFU/mil) | Bacterial count (bacteria; [8]): − (bacterial count was at least 0 and less than 1.0×10^2 CFU/mil) | Bacterial count (bacteria; [9]): − (bacterial count was at least 0 and less than 1.0×10^2 CFU/mil) | Bacterial count (bacteria; [10]): − (bacterial count was at least 0 and less than 1.0×10^2 CFU/mil)

SMILES: Cc1cc2nc3c(=O)[nH]c(=O)nc-3n(CC(O)C(O)C(O)COP(=O)([O-])O)c2cc1C.[Na+] (stereo not shown) [Example 6, Riboflavin sodium phosphate]
Bacterial count (bacteria; [5]): ++ (bacterial count was 1.0×10^6 CFU/ml to 1.4×10^7 CFU/ml) | Bacterial count (bacteria; [6]): + (bacterial count was at least 1.0×10^2 CFU/ml and less than 1.0×10^6 CFU/ml) | Bacterial count (bacteria; [7]): + (bacterial count was at least 1.0×10^2 CFU/ml and less than 1.0×10^6 CFU/ml) | Bacterial count (bacteria; [8]): + (bacterial count was at least 1.0×10^2 CFU/ml and less than 1.0×10^6 CFU/ml) | Bacterial count (bacteria; [9]): − (bacterial count was at least 0 and less than 1.0×10^2 CFU/mil) | Bacterial count (bacteria; [10]): − (bacterial count was at least 0 and less than 1.0×10^2 CFU/mil)

SMILES: CCCC(=O)OCC(OC(=O)CCC)C(OC(=O)CCC)C(Cn1c2nc(=O)[nH]c(=O)c-2nc2cc(C)c(C)cc21)OC(=O)CCC (stereo not shown) [Example 7, Riboflavin butyrate]
Bacterial count (bacteria; [5]): ++ (bacterial count was 1.0×10^6 CFU/ml to 1.4×10^7 CFU/ml) | Bacterial count (bacteria; [6]): + (bacterial count was at least 1.0×10^2 CFU/ml and less than 1.0×10^6 CFU/ml) | Bacterial count (bacteria; [7]): + (bacterial count was at least 1.0×10^2 CFU/ml and less than 1.0×10^6 CFU/ml) | Bacterial count (bacteria; [8]): + (bacterial count was at least 1.0×10^2 CFU/ml and less than 1.0×10^6 CFU/ml) | Bacterial count (bacteria; [9]): − (bacterial count was at least 0 and less than 1.0×10^2 CFU/mil) | Bacterial count (bacteria; [10]): − (bacterial count was at least 0 and less than 1.0×10^2 CFU/mil)

pH change rate (%) [1, 2]: 5.8% | Evaluation of pH drop supression [1, 3]: A (pH change rate of 15% or lower) | pH change [1, 4]: 0.5
SMILES: CC(C)(C)c1cc(CCC(=O)OCC(COC(=O)CCc2cc(C(C)(C)C)c(O)c(C(C)(C)C)c2)(COC(=O)CCc2cc(C(C)(C)C)c(O)c(C(C)(C)C)c2)COC(=O)CCc2cc(C(C)(C)C)c(O)c(C(C)(C)C)c2)cc(C(C)(C)C)c1O [Irganox 1010]

pH change rate (%) [1, 2]: 9.3% | Evaluation of pH drop supression [1, 3]: A (pH change rate of 15% or lower) | pH change [1, 4]: 0.8
SMILES: CC(C)(C)c1cc(Cn2c(=O)n(Cc3cc(C(C)(C)C)c(O)c(C(C)(C)C)c3)c(=O)n(Cc3cc(C(C)(C)C)c(O)c(C(C)(C)C)c3)c2=O)cc(C(C)(C)C)c1O [Irganox 3114]

pH change rate (%) [1, 2]: 17.4% | pH change [1, 4]: 1.5
SMILES: NCCO [Monoethanol amine]
Evaluation of pH drop supression [1, 3]: B (pH change rate higher than 15% and at most 20%)

pH change rate (%) [1, 2]: 19.8% | pH change [1, 4]: 1.7
SMILES: CC(O)CN (stereo not shown) [Monoisopropanolamine]
Evaluation of pH drop supression [1, 3]: B (pH change rate higher than 15% and at most 20%)

pH change rate (%) [1, 2]: 4.7% | Evaluation of pH drop supression [1, 3]: A (pH change rate of 15% or lower) | pH change [1, 4]: 0.4
SMILES: CCC(C)Nc1ccc(NC(C)CC)cc1 (stereo not shown) [N,N′-Di-sec-butyl-1,4-phenylenediamine]

pH change rate (%) [1, 2]: 24.4% | pH change [1, 4]: 2.1
SMILES: O=C1O[C@H]([C@@H](O)CO)C([O-])=C1O.[Na+] [Sodium ascorbate]
Evaluation of pH drop supression [1, 3]: C (pH change rate higher than 20% and at most 30%)

SMILES: CC(O)CN(CC(C)O)CC(C)O (stereo not shown) [Triisopropanolamine]
Evaluation of pH drop supression [1]: A (key: A: pH change rate of 15% or lower; B: pH change rate higher than 15% and at most 20%; C: pH change rate higher than 20% and at most 30%; D: pH change rate higher than 30%) | pH change [1]: 0.8 | pH change rate (%) [1]: 9.3%

SMILES: CC(C)(C)c1ccc(OP(Oc2ccc(C(C)(C)C)cc2C(C)(C)C)Oc2ccc(C(C)(C)C)cc2C(C)(C)C)c(C(C)(C)C)c1 [Tris(2,4-di-tert-butylphenyl) phosphite]
Evaluation of pH drop supression [1]: A (key: A: pH change rate of 15% or lower; B: pH change rate higher than 15% and at most 20%; C: pH change rate higher than 20% and at most 30%; D: pH change rate higher than 30%) | pH change [1]: 0.4 | pH change rate (%) [1]: 4.7%
